# Data published in patent US20050282755A1, “Compositions having antimicrobial activity and uses thereof” (priority 2004, published 2005).
# Key:
# S. dublin (Lane) = experiment: Broth microdilution assay for MIC, Table 4A; format: cell-based, Salmonella dublin; settings: 3 log or greater reduction in bacterial growth over 16 hours
# Description: S. dublin (Lane), S. aureus (Rosenbach), P. acnes, ATCC 6919, E. coli K12 TOP10, and E. coli K12 55099 (protease neg.) bacterial strains were tested in the microbial inhibition assays described hereafter. The S. dublin (Lane), and S. aureus (Rosenbach) strains are available from ATCC (Staphylococcus aureus subsp. aureus Rosenbach (Number: 13150) and Salmonella choleraesuis serotype dublin (Number: 39184)). The strain of P. acnes was purchased from ATCC (strain #6919) (Manassas, Va.). The E. coli K12 strains TOP 10 and 55099 were purchased from Invitrogen (Carlsbad, Calif.) and ATCC respectively. HeLa cells were purchased from ATCC (CCL2). Tryptic soy broth (TSB), Brucella broth, reinforced Clostridial broth and agar were purchased from Becton & Dickinson (distributed by VWR, West Chester, Pa.). All plastic consumables were purchased from VWR (West Chester, Pa.). […]
# The minimum inhibitory concentration (MIC) of peptide compositions for S. aureus, S. dublin and E. coli was determined in a broth microdilution assay. […] The MIC for each peptide for each microorganism was determined by three methods. The growth of bacteria was directly determined by measuring the absorption at 600 nm using a Versamax microplate reader (Molecular Devices). […] After incubation for 16 hours at 37° C. bacterial growth was evaluated and documented (Alpha Innotech gel documentation system).
# P. acnes, ATCC 6919 = experiment: Broth microdilution assay for P. acnes MBC, Table 4B; format: cell-based, Propionibacterium acnes; settings: 3 log or greater reduction in CFU/milliliter after 2.5 hours
# From the text: The strain of P. acnes was purchased from ATCC (strain #6919) (Manassas, Va.). […] HeLa cells were purchased from ATCC (CCL2). Tryptic soy broth (TSB), Brucella broth, reinforced Clostridial broth and agar were purchased from Becton & Dickinson (distributed by VWR, West Chester, Pa.). All plastic consumables were purchased from VWR (West Chester, Pa.). Chemicals were purchased from Sigma Aldrich (St. Louis, Mo.). DMEM, antibiotics and cell culture supplements were purchased from Invitrogen (Carlsbad, Calif.), fetal calf serum (FCS) was purchased from Hyclone (Logan, Utah). […] For propagation in liquid culture individual colonies were inoculated in […] of TSB broth for 16 hours at 37° C. under constant shaking. P. acnes was grown on Brucella broth blood agar plates (supplemented with 5% defibrinated sheep blood, […] hemin and […] vitamin K) under anaerobic conditions (GasPak system, Becton & Dickinson) for 96 hours at 37° C. For propagation in liquid culture individual colonies were inoculated in […] of reinforced Clostridial broth under anaerobic conditions for 72 hours at 37° C. […] The minimum bactericidal concentration (MBC) of peptide compositions for P. acnes was determined in a microdilution assay. […] The appearance of bacterial colonies was evaluated and documented.
# E. coli K12 TOP10 = settings: 3 log or greater reduction in bacterial growth over 16 hours
compound,measurement,setting,value
"CSCC[C@@H](NC(=O)[C@@H](Cc1ccccc1)NC(=O)[C@@H](CC(N)=O)NC(=O)[C@@H](CCCNC(=N)N)NC(=O)[C@@H](CO)NC(=O)[C@@H](Cc1c[nH]c2ccccc12)NC(=O)[C@@H](CC(=O)O)NC(=O)[C@@H](CCCNC(=N)N)NC(=O)[C@@H](Cc1c[nH]c2ccccc12)NC(=O)[C@@H](CCCNC(=N)N)NC(=O)[C@@H](CO)NC(=O)[C@@H](CCCNC(=N)N)NC(=O)CNC(=O)[C@H](NC(=O)[C@@H](CCCNC(=N)N)NC(=O)[C@@H](CO)NC(=O)[C@H](NC(=O)[C@@H](CCCNC(=N)N)NC(=O)[C@H](NC(C)=O)[C@H](C)O)C(C)C)[C@H](C)O)C(=O)N[C@H](CCCNC(=N)N)C(=O)N[C@H](C)C(=O)N[C@H](C)C(N)=O [Peptide 30, Ac-trvsrtgrsrwrdwsrnfmraa-NH2]",Minimum inhibitory concentration (MIC) S. dublin,S. dublin (Lane),4 µM
same,Minimum bactericidal concentration (MBC) for P. acnes,"P. acnes, ATCC 6919",8 micromolar units
same,Minimum inhibitory concentration (MIC) E. coli Top10,E. coli K12 TOP10,4 µM
